Patent publication US6303785A, “Compounds having activity as inhibitors of cytochrome P450RAI” (Allergan Sales, Inc., priority 2000, dated 2001)

Key:
[1] = test system: human skin; conditions: known; cited from earlier work
[2] = test system: skin of hairless mice; assay: Topical Skin Irritation Test (cutaneous toxicity / Blackjack score); type: in vivo, hairless mouse (Cr1:SKH1-hrBR); conditions: topical once daily days 1-5, mean±SD, range 0-21
Excerpt: Mice were housed individually throughout the dosing period.
Doses are disclosed as nmol/25 g.
The grading scale used is as follows:
Values can range from 0-9.
Values can range from 0-8.

[3] = test system: RARβ; assay: chimeric receptor transactivation assay, RARβ; type: cell-based; conditions: read-out: RAR EC50 β
Excerpt: (§1) Assays described below measure the ability of a compound to bind to, and/or activate various retinoid receptor subtypes. When in these assays a compound binds to a given receptor subtype and activates the transcription of a reporter gene through that subtype, then the compound is considered an agonist of that receptor subtype. […] In the below described assays the ability of the compounds to bind to RARα, […], RARγ, […] and RXRγ receptors, and the ability or inability of the compounds to activate transcription of a reporter gene through these receptor subtypes can be tested.
(§2) The results obtained in this assay are expressed in EC50 numbers, as they are also in the chimeric receptor transactivation assay. The results of ligand binding assay are expressed in Kd numbers.

[4] = test system: RARγ; assay: chimeric receptor transactivation assay, RARγ; type: cell-based; conditions: read-out: RAR EC50 γ
Excerpt: as §1, §2

[5] = target: T1, RARβ (Homo sapiens, UniProt P10826); assay: ligand binding assay, RARβ; conditions: read-out: RAR Kd β
T1 sequence (P10826 1-455): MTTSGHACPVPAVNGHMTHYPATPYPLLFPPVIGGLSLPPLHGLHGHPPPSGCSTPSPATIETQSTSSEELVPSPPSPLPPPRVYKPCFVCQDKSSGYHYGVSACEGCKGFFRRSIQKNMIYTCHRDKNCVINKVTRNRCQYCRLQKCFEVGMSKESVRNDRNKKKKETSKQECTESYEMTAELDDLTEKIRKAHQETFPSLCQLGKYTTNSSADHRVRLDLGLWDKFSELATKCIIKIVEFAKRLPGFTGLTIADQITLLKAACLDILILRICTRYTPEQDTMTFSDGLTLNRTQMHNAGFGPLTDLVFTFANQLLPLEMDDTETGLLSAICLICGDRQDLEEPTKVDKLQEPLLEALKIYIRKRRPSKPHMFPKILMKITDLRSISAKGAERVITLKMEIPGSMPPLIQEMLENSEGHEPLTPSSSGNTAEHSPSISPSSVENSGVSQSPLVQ
Excerpt: as §1, §2

[6] = test system: psoriasis; conditions: prior art; cited from earlier work

Row | SMILES | Cutaneous Toxicity Score (Blackjack Score) ([2]; 100 nmole (per 25 g)) | Cutaneous Toxicity Score (Blackjack Score) ([2]; 1000 nmole (per 25 g)) | Cutaneous Toxicity Score (Blackjack Score) ([2]; 300 nmole (per 25 g)) | further results
1 | CC1=C(/C=C/C(C)=C/C=C/C(C)=C\C(=O)O)C(C)(C)CCC1 [13-cis RA] |  |  |  | skin irritation in humans (in words) [1]: substantial skin irritation
2 | CC1=C(/C=C/C(C)=C/C=C/C(C)=C/C(=O)O)C(C)(C)CCC1 [ATRA, all-trans-retinoic acid] |  |  |  | skin irritation in humans (in words) [1]: substantial skin irritation
3 | CC1(C)CCC(=O)c2ccc(C#Cc3ccc(CC(=O)O)cc3)cc21 [Compound 5, 4-[(8,8-Dimethyl1-5-oxo-5,6,7,8-tetrahydro-naphthalene-2-yl-ethynyl)-phenyl]-acetic acid] | 0 | 6 ± 3 |  | 
4 | CN(C1CC1)C1CCC(C)(C)c2cc(C#Cc3ccc(CC(=O)O)cc3)ccc21 (centres unmarked) [Compound 8, 4-[(5-(Cyclopropyl-methyl-amino)-8,8-dimethyl-5,6,7,8-tetrahydro-naphthalene-2-yl-ethynyl)-phenyl]-acetic acid] | 5 ± 2 | 12 ± 1 | 8 ± 3 | 
5 | CC1(C)CCC(=O)c2ccc(C#Cc3ccc(C(=O)O)c(F)c3)cc21 [Compound 10, 2-Fluoro-4(8,8dimethyl-5-oxo-5,6,7,8-tetrahydro-naththalen-2yl-ethynyl)benzoic acid] |  |  |  | EC50 [3]: 0.3 nM; EC50 [4]: 6 nM
6 | CC1(C)CCC(=O)c2ccc(C#Cc3ccc(CC(=O)O)c(F)c3)cc21 [Compound 15, [2-Fluoro-4-(8,8-dimethyl-5-oxo-5,6,7,8-tetrahydro-naphthalene-2-yl-ethynl)phenyl]-acetic acid] | 1 ± 1 | 5 ± 2 |  | 
7 | CN(C1CC1)C1CCC(C)(C)c2cc(C#Cc3ccc(CC(=O)O)c(F)c3)ccc21 (centres unmarked) [Compound 18, [4-(5-(Cyclopropyl-methyl-amino)-8,8-dimethyl-5,6,7,8-tetrahydro-naphthalene-2-yl-ethynyl)-2-fluoro-phenyl]-acetic acid] | 0 ± 0 | 10 ± 2 | 5 ± 2 | 
8 | CC1(C)CN(C2CC2)Cc2ccc(C#Cc3ccc(CC(=O)O)c(F)c3)cc21 [Compound 22, [4-(2-Cyclopropyl-4,4-dimethyl-1 2,3,4-tetrahydro-isoquinolin-6-yl-ethynyl)-2-fluoro-phenyl]-acetic acid] | 0 ± 0 | 1 ± 1 | 0 ± 0 | 
9 | CC1(C)CC(C)(C)c2cc(C#Cc3ccc(CC(=O)O)cc3)cc(C3CC3)c2O1 [Compound 36, [4-(8-Cyclopropyl-2,2,4,4-tetramethyl-chroman-6-yl-ethynyl)phenyl]acetic acid] | 1 ± 1 | 11 ± 0 |  | 
10 | CC1(C)CC(C)(C)c2cc(C#Cc3ccc(CC(=O)O)c(F)c3)cc(C3CC3)c2O1 [Compound 38, [4(8-Cyclopropyl-2,2,4,4tetramethyl-chroman-6-yl-ethynyl)-2-fluoro-phenyl]acetic acid] | 1 ± 1 | 10 ± 1 |  | 
11 | CC1(C)CC2(CC2)Oc2c(C3CC3)cc(C#Cc3ccc(CC(=O)O)cc3)cc21 [Compound 48, Benzeneacetic acid, 4-[(8-cyclopropyl-3,4-dihydro-4,4-dimethylspiro[2H 1-benzopyran-2.1'-cyclopropane]-6-yl)ethanyl]-] | 1 ± 1 | 7 ± 2 | 3 ± 1 | 
12 | CC1(C)CC2(CC2)Oc2c(C3CC3)cc(C#Cc3ccc(CC(=O)O)c(F)c3)cc21 [Compound 50, 4-[(8-Cyclopropyl-3,4-dihydro-4,4-dimethylspiro[2H-1-benzopyran-2,1'-cyclopropane]-6-yl)ethynyl]-2-fluoro-benzeneacetic acid] | 1 ± 0 | 8 ± 2 | 3 ± 2 | 
13 | CC1(C)CC2(CC2)Oc2c(C3CC3)cc(C(=O)Oc3ccc(CC(=O)O)cc3)cc21 [Compound 58, Spiro[2H-1-benzopyran-2,1'-cyclopropane]-6-carboxylic acid, 8-cyclopropyl-3,4-dihydro-4,4-dimethyl-, 4-(carboxymethyl)phenyl ester] | 0 ± 0 | 0 ± 0 | 0 ± 0 | 
14 | CCc1cc(C#Cc2ccc(C(=O)O)cc2)ccc1C1(OCc2ccccc2)CC1 [Compound 93, 4-[4-(1-Benzyloxycyclopropyl)-3-ethyl-phenylethynyl]-benzoic acid] |  |  |  | EC50 [3]: 20 nM; EC50 [4]: 10 nM
15 | O=C(O)c1ccc(C#Cc2ccc(C3(N(Cc4ccccc4)Cc4ccccc4)CC3)cc2)cc1 [Compound 114] |  |  |  | Kd [5]: > 10 nM
16 | CC1(C)CCC(n2ccnc2)c2ccc(C#Cc3ccc(CC(=O)O)cc3)cc21 (centres unmarked) [Compound 137, [4-(5-Imidazol-1-yl-8,8-dimethyl-5,6,7,8-tetrahydro-naphthalen-2-yl-ethynyl)-phenyl]-acetic acid] | 1 ± 1 | 5 ± 2 | 1 ± 1 | 
17 | CCOC(=O)/C=C(C)/C=C/C=C(C)/C=C/c1c(C)cc(OC)c(C)c1C [etretinate] |  |  |  | skin irritation in humans (in words) [1]: substantial skin irritation
18 | Clc1cccc(C(c2ccc3[nH]cnc3c2)n2ccnc2)c1 (centres unmarked) [liarozole] |  |  |  | retinoid-like effect of treatment (in words) [6]: amelioration of psoriasis
